Test system: IFNα-induced pSTAT5 (pY694) in CD3 positive cells of human whole blood
Test: IFNα-Induced STAT Phosphorylation in Human Whole Blood
Assay type: cell-based
Conditions: 1 h compound incubation, 1000 U/mL recombinant human IFNα A/D for 15 min, pSTAT5 in CD3 positive population, read-out: Human WB IFNα-Induced Stat Phosph. (IC50)
Procedure, shortened: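 Read-out is median fluorescence intensity of pSTAT5 (pY694) in the CD3-positive gate, by flow cytometry after fix/lyse and permeabilization. Before that, whole human blood anticoagulated with EDTA or ACD-A received compound for an hour and 1000 U/mL IFNα A/D for 15 min.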

IC50 [nM] | Compound
1070 | [2H]C([2H])([2H])NC(=O)c1nnc(NC(=O)C2CC2)cc1Nc1cccc(-c2cnn(CCNC(C)=O)c2)c1OC [Example 556, 4-((3-(1-(2-acetamidoethyl)-1H-pyrazol-4-yl)-2-methoxyphenyl)amino)-6-(cyclopropanecarboxamido)-N-(methyl-d3)pyridazine-3-carboxamide]

Same assay, conditions: Homo sapiens, 1 h compound incubation, 1000 U/mL recombinant human IFNα A/D for 15 min, pSTAT5 in CD3 positive population, read-out: Human WB IFNα-Induced Stat Phosph. (IC50)

IC50 [nM] | Compound
250 | [2H]C([2H])([2H])NC(=O)c1nnc(NC(=O)C2CC2)cc1Nc1cc(F)cc(-c2cc(C(=O)N(C)C(C)C)n(C)n2)c1OC [Example 506]
300 | [2H]C([2H])([2H])NC(=O)c1nnc(NC(=O)C2CC2)cc1Nc1cccc(-c2ncc(CC(=O)N3CCOCC3)s2)c1OC [Example 253]
90 | [2H]C([2H])([2H])NC(=O)c1nnc(NC(=O)C2CC2)cc1Nc1cccc(-c2cnn(CC(=O)NCC)n2)c1OC [Example 427]
2320 | [2H]C([2H])([2H])NC(=O)c1nnc(NC(=O)C2CC2)cc1Nc1cccc(-c2ccn(CCN(C[C@H](O)CC)C[C@@H](O)CC)n2)c1OC [Example 475]
170 | [2H]C([2H])([2H])NC(=O)c1nnc(NC(=O)C2CC2)cc1Nc1cccc(-c2ncc(C(=O)N3CCC(CCCO)CC3)s2)c1OC [Example 353]
470 | [2H]C([2H])([2H])NC(=O)c1nnc(NC(=O)C2CC2)cc1Nc1cccc(-c2cc(C(=O)N3CNCC(=O)C3)n(C)n2)c1OC [Example 532]
300 | [2H]C([2H])([2H])NC(=O)c1nnc(NC(=O)C2CC2)cc1Nc1cccc(-c2nc(CN3CCN(C(=O)C4CC4)CC3)no2)c1OC [Example 132]
22 | [2H]C([2H])([2H])NC(=O)c1nnc(NC(=O)C2CC2)cc1Nc1cccc(-c2noc(C(=O)NCCC3CCCN3C)n2)c1OC (stereo not drawn) [Example 21]
30 | [2H]C([2H])([2H])NC(=O)c1nnc(NC(=O)C2CC2)cc1Nc1cccc(-c2cnn(CC(=O)NCCOC)n2)c1OC [Example 426, 6-(cyclopropanecarboxamido)-4-((2-methoxy-3-(2-(2-((2-methoxyethyl)amino)-2-oxoethyl)-2H-1,2,3-triazol-4-yl)phenyl)amino)-N-trideuteromethylpyridazine-3-carboxamide]
60 | [2H]C([2H])([2H])NC(=O)c1cnc(Nc2cc(C)ccn2)cc1Nc1cccc(-c2noc(COCC)n2)c1OC [Example 100]
> 10000 | COc1c(Nc2cc(NC(=O)C3CC3)nnc2C)cccc1-c1ncn(C)n1 [Example 409, N-(5-((2-methoxy-3-(1-methyl-1H-1,2,4-triazol-3-yl)phenyl)amino)-6-methylpyridazin-3-yl)cyclopropanecarboxamide]
40 | [2H]C([2H])([2H])NC(=O)c1nnc(NC(=O)C2CC2)cc1Nc1cccc(-c2noc(CN3CCOC3=O)n2)c1OC [Example 77]
490 | [2H]C([2H])([2H])NC(=O)c1nnc(NC(=O)C2CC2)cc1Nc1cccc(-c2noc(C(=O)N(C)C)n2)c1OC [Example 17]
290 | [2H]C([2H])([2H])NC(=O)c1cnc(NC(=O)C2CC2)cc1Nc1cccc(-c2cnn(CCNC(=O)COC)n2)c1OC [Example 441]
270 | [2H]C([2H])([2H])NC(=O)c1nnc(NC(=O)C2CC2)cc1Nc1cccc(-c2nc(C)c(C(=O)N3C[C@@H](C)O[C@@H](C)C3)s2)c1OC [Example 362]
320 | [2H]C([2H])([2H])NC(=O)c1cnc(NC(=O)C2CC2)cc1Nc1cccc(-c2nc(C3(N)CC3)no2)c1OC [Example 212]
180 | [2H]C([2H])([2H])NC(=O)c1nnc(NC(=O)C2CC2)cc1Nc1cccc(-c2ncc(C(=O)N3CC(CO)C3)s2)c1OC [Example 345]
110 | [2H]C([2H])([2H])NC(=O)c1nnc(NC(=O)C2CC2)cc1Nc1cc(F)cc(-c2cc(C(=O)N3CCN(C)CC3)n(C)n2)c1OC [Example 497]
30 | COc1c(Nc2cc(NC(=O)C3CC3)nnc2C(N)=O)cccc1-c1noc([C@@H]2[C@H](O)CCN2S(C)(=O)=O)n1 [Example 66]
160 | [2H]C([2H])([2H])NC(=O)c1nnc(NC(=O)C2CC2)cc1Nc1cccc(-c2cnn(CCNC(=O)CO)n2)c1OC [Example 447]
390 | [2H]C([2H])([2H])NC(=O)c1cnc(NC(=O)C2CC2)cc1Nc1cccc(-c2nc(C3(NC(C)=O)CC3)no2)c1OC [Example 214]
60 | [2H]C([2H])([2H])NC(=O)c1nnc(NC(=O)C2CC2)cc1Nc1cccc(-c2noc(CC(=O)N3CCOCC3)n2)c1OC [Example 23]
140 | COc1c(Nc2cc(NC(=O)C3CC3)nnc2C(N)=O)cccc1-c1noc([C@@H](C)NS(C)(=O)=O)n1 [Example 47]
1440 | [2H]C([2H])([2H])NC(=O)c1nnc(NC(=O)C2CC2)cc1Nc1cccc(-c2nc(CN(C)C(=O)CN(C)C)no2)c1OC [Example 172]
400 | [2H]C([2H])([2H])NC(=O)c1nnc(NC(=O)C2CC2)cc1Nc1cccc(-c2nc(CN3C[C@@H](C)O[C@@H](C)C3)no2)c1OC [Example 158]
23 | COC(=O)N1CCN(Cc2nc(-c3cccc(Nc4cc(NC(=O)C5CC5)nnc4C(N)=O)c3OC)no2)CC1 [Example 39]

IC50 [nM] | Compound
80 | [2H]C([2H])([2H])NC(=O)c1nnc(NC(=O)C2CC2)cc1Nc1cccc(-c2ncc(C(=O)N3CCC(N4CCN(CCO)CC4)CC3)s2)c1OC [Example 342]
320 | [2H]C([2H])([2H])NC(=O)c1nnc(NC(=O)C2CC2)cc1Nc1cccc(-c2nc(CN)no2)c1OC [Example 143]
290 | COc1c(Nc2cc(NC(=O)C3CC3)nnc2C(N)=O)cccc1-c1ncc(C(=O)NCc2cccc(Cl)c2)o1 [Example 421]
700 | [2H]C([2H])([2H])NC(=O)c1cnc(NC(=O)C2CC2)cc1Nc1cc(F)cc(-c2csc(C(=O)NCCOC)n2)c1OC [Example 574]
320 | [2H]C([2H])([2H])NC(=O)c1nnc(NC(=O)C2CC2)cc1Nc1cc(F)cc(-c2cc(C(=O)N3CCC(c4ccccc4)CC3)n(C)n2)c1OC [Example 511]
30 | [2H]C([2H])([2H])NC(=O)c1nnc(NC(=O)C2CC2)cc1Nc1cccc(-c2noc(CO)n2)c1OC [Example 69]
420 | [2H]C([2H])([2H])NC(=O)c1nnc(NC(=O)C2CC2)cc1Nc1cccc(-c2ncc(COCC)s2)c1OC [Example 394]
330 | [2H]C([2H])([2H])NC(=O)c1nnc(NC(=O)C2CC2)cc1Nc1cccc(-c2ncc(C(=O)NCC#N)s2)c1OC [Example 300]
200 | COc1c(Nc2cc(NC(=O)C3CC3)nnc2C(N)=O)cccc1-c1ncc(C(=O)N2CCC(O)CC2)o1 [Example 419]
850 | [2H]C([2H])([2H])NC(=O)c1nnc(NC(=O)C2CC2)cc1Nc1cccc(-c2nc([C@H](NC(=O)COC)[C@H](C)O)no2)c1OC [Example 205]
2360 | [2H]C([2H])([2H])NC(=O)c1nnc(NC(=O)C2CC2)cc1Nc1cccc(-c2nc([C@@H](NC(=O)CC)[C@@H](C)O)no2)c1OC [Example 190]
1210 | [2H]C([2H])([2H])NC(=O)c1nnc(NC(=O)C2CC2)cc1Nc1cccc(-c2cc(C(=O)NCCOC)n(C)n2)c1OC [Example 458]
60 | [2H]C([2H])([2H])NC(=O)c1cnc(NC(=O)C2CC2)cc1Nc1cc(F)cc(-c2cc(C(=O)N(C)C)n(C)n2)c1OC [Example 456]
30 | [2H]C([2H])([2H])NC(=O)c1nnc(NC(=O)C2CC2)cc1Nc1cccc(-c2ncc(C(=O)NCCCN3CCCC3=O)s2)c1OC [Example 293]
9 | COc1c(Nc2cc(NC(=O)C3CC3)nnc2C(N)=O)cccc1-c1noc(CN(C)S(C)(=O)=O)n1 [Example 44]
1680 | [2H]C([2H])([2H])NC(=O)c1nnc(NC(=O)C2CC2)cc1Nc1cccc(-c2nc([C@H](C)NC(C)=O)no2)c1OC [Example 183]
> 10000 | [2H]C([2H])([2H])NC(=O)c1cnc(NC(=O)C2CC2)cc1Nc1cccc(-c2cnn(CCNC(=O)OC(C)(C)C)n2)c1OC [Example 430]
21 | COc1c(Nc2cc(NC(=O)C3CC3)nnc2C(N)=O)cccc1-c1noc([C@@H]2C[C@@H](O)CN2S(C)(=O)=O)n1 [Example 11]
1650 | [2H]C([2H])([2H])NC(=O)c1nnc(NC(=O)C2CC2)cc1Nc1cccc(-c2nc([C@H](CO)NC(=O)CC)no2)c1OC [Example 198]
1270 | [2H]C([2H])([2H])NC(=O)c1nnc(NC(=O)C2CC2)cc1Nc1cccc(-c2nc([C@H](NC(=O)CC)[C@H](C)O)no2)c1OC [Example 208]
570 | [2H]C([2H])([2H])NC(=O)c1nnc(NC(=O)C2CC2)cc1Nc1cccc(-c2nc(CN(C)C(=O)COC)no2)c1OC [Example 170]
560 | [2H]C([2H])([2H])NC(=O)c1nnc(Nc2ccc(OC)nn2)cc1Nc1cccc(-c2nc(C(=O)N(C)C)cs2)c1OC [Example 379]
30 | [2H]C([2H])([2H])NC(=O)c1cnc(NC(=O)C2CC2)cc1Nc1cccc(-c2noc(CN3CCN(C(=O)OC)CC3)n2)c1OC [Example 92]
80 | COc1c(Nc2cc(NC(=O)C3CC3)nnc2C(N)=O)cccc1-c1ncc(CN2CCN(S(C)(=O)=O)CC2)s1 [Example 395]
80 | [2H]C([2H])([2H])NC(=O)c1nnc(Nc2ccc(OC)nn2)cc1Nc1cccc(-c2nc(CN3CCOCC3)no2)c1OC [Example 238]
260 | [2H]C([2H])([2H])NC(=O)c1nnc(NC(=O)C2CC2)cc1Nc1cccc(-c2ncc(CC(=O)N(C)C)o2)c1OC [Example 410, 6-(cyclopropanecarboxamido)-4-((3-(5-(2-(dimethylamino)-2-oxoethyl)oxazol-2-yl)-2-methoxyphenyl)amino)-N-(methyl-d3)pyridazine-3-carboxamide]

Compound | IC50 [nM]
[2H]C([2H])([2H])NC(=O)c1nnc(NC(=O)C2CC2)cc1Nc1cccc(-c2cc(C(=O)NCC34CCN(CC3)CC4)n(C)n2)c1OC [Example 504] | > 10000

Source: patent publication US12240840B2, “Amide-substituted heterocyclic compounds for the treatment of conditions related to the modulation of IL-12, IL-23 and/or IFN-alpha” (BRISTOL-MYERS SQUIBB COMPANY, priority 2018, dated 2025)
